Experiments:
[1] = system: soybean (Tanba-kuro, Chusei-hikari-kuro, Sachiyutaka); test: Inosine sprayed on soil surface: root nodule formation and growth of soybean (Example 1); type: in vivo; settings: 2 ppm and 20 ppm inosine solution, 250 ml sprayed on soil surface 7, 10 and 15 days after seeding, measured 20 days after seeding, all varieties Tanba-kuro, vs distilled water
From the text: Various varieties of soybeans (black soybeans: Tanba-kuro and Chusei-hikari-kuro, white soybean: Sachiyutaka) were each seeded in 0.6 L of soil (marketed vermiculite, fertilizer was not added) contained in each of No. 4 pots (diameter: 12 cm). For each variety, 7 individuals showing good growth before development of primary leaf were selected per pot. Seven individuals were used for each of the following treatment groups.
2. 2 ppm Inosine solution group
3. 20 ppm Inosine solution group
4. 100 ppm Inosine solution group
Each solution in a volume of 250 ml was splayed on the soil surface in the pot, 7, 10 and 15 days after the seeding. The inosine concentrations in the soil given as a one-time application were 0.83 ppm for the 2 ppm solution group, 8.3 ppm for the 20 ppm solution group, and 41.7 ppm for the 100 ppm solution group, which were equivalent to 442 g/ha, 4,425 g/ha, and 22.1 kg/ha, respectively. The inosine solutions were prepared by diluting a 2% inosine solution (Ikuou, Shoko Agri Co., Ltd., containing 0.52% KOH as pH modifier in order to promote dissolution of inosine) with distilled water.
Twenty days after the seeding, the number of root nodules (FIG. 1) and the dry weight of aboveground parts (FIG. 2) were measured.

Soybean (Sachiyutaka) [2] = test: Inosine applied by irrigation into soybean-growing black soil (Example 2); type: in vivo; settings: 34 days after seeding; for Dry weight of aboveground part / Dry weight of underground part: 2 ppm inosine, irrigation, relative value, distilled water group taken as 100
Protocol: Soybean (Sachiyutaka) was seeded in 1 kg of soil (marketed black soil, moisture content: 35%) contained in each of the pots. Calcium superphosphate and potassium sulfate were added as fertilizers in the amounts of 40 mg/pot, in terms of P2O5 and K2O, respectively. The treatment groups included the distilled water group and the 2 ppm inosine solution group. One individual showing good growth before development of a primary leaf was selected from each pot, and five individuals were used for each treatment group. Either the distilled water or the inosine solution in a volume of 250 ml was applied to the soil in the pot by irrigation, 10, 14 and 19 days after the seeding. The inosine concentration in the soil given as a one-time application was 0.5 ppm, which was equivalent to 325 g/ha, in the 2 ppm solution group. Thirty-four days after the seeding, the number of root nodules (FIG. 3), the dry weight of root nodules (FIG. 4), the dry weight of aboveground parts, and the dry weight of underground parts (Table 1) were measured. The dry weight of root nodules, the dry weight of aboveground parts, and the dry weight of underground parts were indicated with relative values based on the values of the distilled water group, which were taken as 100. The application of the 2 ppm inosine solution increased all of the number of root nodules, the dry weight of root nodules, the dry weight of aboveground parts and the dry weight of underground parts.

Soybean (Sachiyutaka) [3] = test: Inosine applied to soybean by foliar spray, soil inoculated with Bradyrhizobium japonicum (Example 3); type: in vivo; settings: 32 days after seeding; for Dry weight of aboveground part / Dry weight of underground part: foliar spray, table prints Inosine (ppm) 2, text 10 ppm, relative value, distilled water group taken as 100
Protocol: Soybean (Sachiyutaka) was seeded in 0.7 kg of soil (marketed black soil, moisture content: 35%) contained in each of pots. Calcium superphosphate and potassium sulfate were added as fertilizers in the amounts of 28 mg/pot, in terms of P2O5 and K2O, respectively. As root nodule bacterium, “Mame-Zo” (containing a soybean root nodule bacterium, Bradyrhizobium japonicum, Tokachi Federation of Agricultural Cooperative Associations, http://www.nokyoren.or.jp/material.html) was added to the soil at a root nodule bacterium concentration of 10^4 cfu/cm^3 of soil. The treatment groups included the distilled water group and the 10 ppm inosine solution group. One individual showing good growth before development of a primary leaf was selected from each pot, and five individuals were used for each treatment group. Either distilled water or the inosine solution in a volume of 5 ml was applied by foliar spray, 10, 14 and 19 days after the seeding. To the distilled water and the inosine solution, a spreading composition (Approach BI, Kao Corp., “Approach” is a registered trade name of Kao Corp.) was added at a concentration of 0.1 v/v %. The spray amount of inosine given as a one-time application was 10 g/ha in the 10 ppm inosine solution group. Thirty-two days after the seeding, the number of root nodules (FIG. 5), the dry weight of root nodules (FIG. 6), the dry weight of aboveground parts, and the dry weight of underground parts (Table 2) were measured. The dry weight of root nodules, the dry weight of aboveground parts, and the dry weight of underground parts were indicated with relative values based on the values of the distilled water group, which were taken as 100. The application of the 10 ppm inosine solution increased all of the number of root nodules, the dry weight of root nodules, the dry weight of aboveground parts and the dry weight of underground parts.

Soybean (Sachiyutaka) [4] = test: Inosine applied by irrigation to soybean-growing vermiculite, low and high soil nutrient (Example 4); type: in vivo; settings: 2 ppm and 20 ppm inosine solutions, irrigation 10, 17 and 25 days after seeding; 33 days after seeding; same soil fertilizer condition (low or high soil nutrient); vs distilled water groups
Protocol: Soybean (Sachiyutaka) was transplanted to 1.4 L of soil (vermiculite, moisture content: 50%) contained in each of pots (diameter: 15 cm). The treatment groups included the distilled water groups (Groups 1 and 4) and the inosine application groups (Groups 2, 3, 5 and 6), in which 2 ppm and 20 ppm inosine solutions were applied (Ikuou [Shoko Agri Co., Ltd.] was diluted with distilled water and applied), as shown in Table 3. The distilled water groups and the inosine application groups both include a group in which calcium superphosphate and potassium sulfate were added as fertilizers in amounts of 40 mg/pot in terms of P2O5 and K2O, respectively, and a group in which an organic fertilizer (“Hanasaku Hiryo (1.5-9-4.5)”, Tosho Co., Ltd.) was added in an amount of 2 g/pot (N:P2O5:K2O=30:180:90 mg/pot). The root nodule bacterium (“Mame-Zo”, Tokachi Federation of Agricultural Cooperative Associations) was added at a concentration of 4×10^4 cfu/cm^3 of soil. One individual showing good growth before development of a primary leaf was selected from each pot, and five individuals were used for measurement of each treatment group. Either distilled water or each of the inosine solutions in a volume of 250 ml was applied by irrigation, 10, 17 and 25 days after the seeding. The inosine concentrations in the soil given as a one-time application were 0.36 ppm for the 2 ppm solution groups, and 3.6 ppm for the 20 ppm solution groups, which were equivalent to 282 g/ha and 2,825 g/ha, respectively. Under the low nutrient soil condition (Groups 1 to 3), etiolation of the leaves was observed and considered to be due to deficiency of trace components. Accordingly, a solution of the composition shown in Table 4 was applied in a volume of 100 ml/pot by irrigation, 20 days and 27 days after the transplantation of the soybean. Even in this case, the nutrient concentration was lower than that of the high soil nutrient groups (Groups 4 to 6). [table] Thirty-three days after the seeding, the number of root nodules (FIG. 7), the dry weight of root nodules (FIG. 8), the dry weight of aboveground parts (FIG. 9), and the dry weight of underground parts (FIG. 10) were measured. Under the same soil fertilizer condition, the applications of the 2 ppm and 20 ppm inosine solutions both increased all of the number of root nodules, the dry weight of root nodules, the dry weight of aboveground parts and the dry weight of underground parts, as compared with the distilled water groups (0 ppm groups).

plant roots = settings: applied to soil or hydroponic water; leaf vegetables, fruit vegetables, root vegetables, flowers and fruit trees (Japanese Patent No. 2927269); cited from earlier work
[5] = 2 ppm inosine solution, irrigation 10, 14 and 19 days after seeding, vs distilled water group
[6] = 10 ppm inosine solution, 5 ml foliar spray 10, 14 and 19 days after seeding, vs distilled water group

With OC[C@H]1O[C@@H](n2cnc3c(O)ncnc32)[C@H](O)[C@@H]1O [Inosine, inosine] the “dry weight of aboveground parts” value [1] was “clearly increased”, the “number of root nodules” value [1] was “clearly increased” and the “dry weight of root nodules” value (Soybean (Sachiyutaka) [2]; [5]) was “increased”. For the same molecule, the “number of root nodules” value (Soybean (Sachiyutaka) [2]; [5]) was “increased”, the “Dry weight of aboveground part” value (Soybean (Sachiyutaka) [2]) was 105.1 and the “Dry weight of underground part” value (Soybean (Sachiyutaka) [2]) was 107.2. For the same molecule, the “Dry weight of aboveground part” value (Soybean (Sachiyutaka) [2]; listed as inosine) was “increased”, the “Dry weight of underground part” value (Soybean (Sachiyutaka) [2]; listed as inosine) was “increased” and the “dry weight of root nodules” value (Soybean (Sachiyutaka) [3]; [6]) was “increased”. For the same molecule, the “number of root nodules” value (Soybean (Sachiyutaka) [3]; [6]) was “increased”, the “Dry weight of aboveground part” value (Soybean (Sachiyutaka) [3]) was 122.0 and the “Dry weight of underground part” value (Soybean (Sachiyutaka) [3]) was 111.9. The “Dry weight of aboveground part” value (Soybean (Sachiyutaka) [3]; listed as inosine) was “increased”, the “Dry weight of underground part” value (Soybean (Sachiyutaka) [3]; listed as inosine) was “increased” and the “dry weight of aboveground parts” value (Soybean (Sachiyutaka) [4]) was “increased”. For the same molecule, the “dry weight of root nodules” value (Soybean (Sachiyutaka) [4]) was “increased”, the “dry weight of underground parts” value (Soybean (Sachiyutaka) [4]) was “increased” and the “number of root nodules” value (Soybean (Sachiyutaka) [4]) was “increased”. The “growth of plant roots” value (plant roots) was “promote the growth of plant roots”.
